The values below are quoted from earlier work in patent US20140005280A1, “CARBOXYMETHYL STARCH AND CHITOSAN POLYELECTROLYTE COMPLEXES” (4413261 Canada Inc. (Spencer Canada), priority 2011, published 2014).

For the series the following is noted: US Pharmacopeia, 2000.

With `CC(=O)Oc1ccccc1C(=O)O` [aspirin, acetylsalicylic acid], the solubility result is listed as “slightly soluble in water”.
